# Calls of active or inactive are those of the source.
# Legend:
# [1] = reduced cellular PGC1a acetyl-lysine signal – cell-based, cherry-picked samples, dose response (AID 720514); type: functional;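 also: potency may reflect raised or lowered acetylation signal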
# Cytochrome P450 3A4 = Cytochrome P450 3A4 (Homo sapiens, UniProt P08684);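 also: CYP3A4 tested as one member of a cytochrome P450 panel screen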
# Cytochrome P450 2C9 = Cytochrome P450 2C9 (Homo sapiens, UniProt P11712)
# [2] = glucagon-like peptide-1 release potency in STC-1, concentration-response, half-maximal inhibitory concentration in the STC-1 line (AID 1117345); type: functional, cell-based
# [3] = Potency on glucagon-like peptide 1 release, dose-response in NCI-H716 cell line, half maximal inhibitory concentration (AID 1117344); type: functional, cell-based
# Cytochrome P450 2D6 = Cytochrome P450 2D6 (Homo sapiens, UniProt P10635);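 also: CYP2D6 member of a cytochrome P450 panel assay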
# Cytochrome P450 2D6, sequence (P10635 whole entry): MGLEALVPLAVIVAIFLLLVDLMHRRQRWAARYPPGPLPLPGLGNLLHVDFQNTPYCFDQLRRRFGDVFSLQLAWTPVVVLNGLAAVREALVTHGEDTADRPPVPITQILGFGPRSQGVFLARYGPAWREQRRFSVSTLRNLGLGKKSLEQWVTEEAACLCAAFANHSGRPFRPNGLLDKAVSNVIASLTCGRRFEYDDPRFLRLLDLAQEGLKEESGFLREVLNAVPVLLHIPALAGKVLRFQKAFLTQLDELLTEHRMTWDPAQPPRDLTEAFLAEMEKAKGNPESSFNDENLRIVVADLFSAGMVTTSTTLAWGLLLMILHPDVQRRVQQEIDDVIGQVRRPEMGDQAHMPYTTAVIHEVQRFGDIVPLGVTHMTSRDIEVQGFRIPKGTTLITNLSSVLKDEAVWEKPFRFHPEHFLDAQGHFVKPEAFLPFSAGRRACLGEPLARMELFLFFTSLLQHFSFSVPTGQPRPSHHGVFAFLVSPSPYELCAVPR
# Cytochrome P450 1A2 = molecular target: T1, Cytochrome P450 1A2 (Homo sapiens, UniProt P05177);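 also: PubChem cytochrome P450 panel assay, CYP1A2 panel member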
# T1 sequence (P05177 whole entry): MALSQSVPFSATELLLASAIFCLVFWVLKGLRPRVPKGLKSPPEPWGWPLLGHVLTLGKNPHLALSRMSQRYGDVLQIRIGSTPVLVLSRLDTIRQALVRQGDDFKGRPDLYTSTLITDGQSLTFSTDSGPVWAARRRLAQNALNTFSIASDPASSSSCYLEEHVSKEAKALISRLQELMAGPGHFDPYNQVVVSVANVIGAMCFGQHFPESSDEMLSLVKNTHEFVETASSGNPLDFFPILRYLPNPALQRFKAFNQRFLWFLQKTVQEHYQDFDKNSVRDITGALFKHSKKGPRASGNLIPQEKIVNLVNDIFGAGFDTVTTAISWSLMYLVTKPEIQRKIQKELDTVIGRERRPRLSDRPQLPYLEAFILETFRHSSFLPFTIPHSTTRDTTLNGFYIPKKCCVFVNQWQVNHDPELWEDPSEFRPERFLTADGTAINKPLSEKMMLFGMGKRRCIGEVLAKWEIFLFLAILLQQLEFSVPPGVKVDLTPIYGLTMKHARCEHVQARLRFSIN
# Prothrombin = Prothrombin (Homo sapiens, UniProt P00734); test: Thrombin 1536 HTS Dose Response Confirmation. [Related pubchem assays: 1046 (Thrombin 1536 HTS; hits were confirmed in this assay)]; type: functional
# [4] = Luminescence Cell-Based Dose Retest to Confirm Inhibitors of Cancer Stem Cells. [Related pubchem assays (depositor defined):AID2717, AID2721]; type: functional; conditions: Homo sapiens
# [5] = molecular target: T2, Microphthalmia-associated transcription factor (Homo sapiens, UniProt O75030); test: reducers of TRPM1 reporter luminescence, concentration series – cell-based, SK-MEL-5, cherry-picked, set 3, MITF inhibitor project, dose response (AID 493073); type: functional;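 also: SK-MEL-5 melanoma cells with luciferase driven by the MITF target TRPM1 promoter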
# T2 sequence (O75030 whole entry): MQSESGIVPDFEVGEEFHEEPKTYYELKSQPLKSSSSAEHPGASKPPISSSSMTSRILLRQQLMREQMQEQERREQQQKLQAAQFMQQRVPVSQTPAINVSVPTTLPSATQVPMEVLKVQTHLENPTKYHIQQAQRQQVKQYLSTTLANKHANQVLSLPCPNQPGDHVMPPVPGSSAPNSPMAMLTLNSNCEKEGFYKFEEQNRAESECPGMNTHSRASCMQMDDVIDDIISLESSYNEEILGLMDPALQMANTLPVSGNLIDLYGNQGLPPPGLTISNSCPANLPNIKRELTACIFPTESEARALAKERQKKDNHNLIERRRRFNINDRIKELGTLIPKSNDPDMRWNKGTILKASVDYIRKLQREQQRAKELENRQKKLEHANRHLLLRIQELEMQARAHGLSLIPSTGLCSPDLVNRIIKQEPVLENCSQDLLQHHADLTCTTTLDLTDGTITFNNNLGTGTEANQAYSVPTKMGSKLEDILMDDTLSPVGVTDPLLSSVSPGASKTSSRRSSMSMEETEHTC
# A-375 = test: proliferation inhibition in MITF-low A375 cells – cell-based, cherry-pick samples, set 2, counter-screen for MITF modulator project, dose response (AID 540335); type: functional; conditions: Homo sapiens
# [6] = reduction of Shn3 3'UTR-driven luciferase in osteoblasts – cell-based, Clone20 osteoblasts, firefly luciferase, cherry-picked, dose response (AID 624132); type: functional;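 also: firefly luciferase luminescence from reporter carrying the Shn3 3'UTR in osteoblasts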
# [7] = loss of viability in HepG2 cells – cell-based, CellTiter-Glo, cherry-picked, cytotoxicity control for Shn3 inhibitor project, dose response (AID 624134); type: functional
# [8] = non-specific 3'UTR reporter inhibition in Clone20-Shn3RL – cell-based, Renilla luciferase, cherry-picked, counter-screen for Shn3 inhibitor project, dose response (AID 624133); type: functional
# Paired box protein Pax-8 = Paired box protein Pax-8 (Homo sapiens, UniProt Q06710); test: PAX8 transcriptional activity inhibition in RMG-I – RMG-I cells, luciferase, cherry-pick, dose response (AID 687027); type: functional, cell-based;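 also: luciferase reporter driven by Pax8 target thyroperoxidase promoter measured by SteadyGlo luminescence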
# Paired box protein Pax-8, sequence (Q06710 whole entry): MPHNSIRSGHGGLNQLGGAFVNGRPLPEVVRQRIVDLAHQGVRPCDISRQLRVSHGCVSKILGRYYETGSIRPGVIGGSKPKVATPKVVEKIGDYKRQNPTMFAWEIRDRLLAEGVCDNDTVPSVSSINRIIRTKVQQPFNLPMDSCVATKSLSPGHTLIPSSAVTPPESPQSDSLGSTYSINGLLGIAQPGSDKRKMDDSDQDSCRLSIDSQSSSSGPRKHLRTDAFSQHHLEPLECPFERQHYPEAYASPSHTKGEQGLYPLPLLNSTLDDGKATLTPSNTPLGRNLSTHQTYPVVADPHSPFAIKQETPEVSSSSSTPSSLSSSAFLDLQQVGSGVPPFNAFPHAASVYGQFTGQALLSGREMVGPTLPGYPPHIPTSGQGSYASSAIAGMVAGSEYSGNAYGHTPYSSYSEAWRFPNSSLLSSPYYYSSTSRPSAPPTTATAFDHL
# [9] = A549 cell cytotoxicity, dose response, cytotoxicity control, plate reader, cherry-pick, antagonist series (AID 743412); type: functional, cell-based
# [10] = toxicity toward HepG2 liver cells – cell-based, plate reader, cherry-pick, antagonist series, cytotoxicity control, dose response (AID 743416); type: functional
# [11] = blockers of bursicon-stimulated LGR2 cAMP reporter – cell-based, HEK293, CRE-luciferase reporter, cherry pick, set 2, dose response (AID 743343); type: functional;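 also: transfected cells were stimulated with diluted bursicon conditioned medium after compound addition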
# [12] = blockade of melanocortin 4 receptor signaling – cell-based, plate reader, cherry pick, counter-screen for LGR2 antagonist project, dose response (AID 743444); type: functional;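 also: transfected HEK 293 cells stimulated with alpha-MSH peptide; potency of inhibitors of the alpha-MSH evoked signal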
# [13] = viability loss in HEK293 cells – cell-based, plate reader, cherry-picked samples, cytotoxicity control, dose response (AID 743446); type: functional
# [14] = NIH-3T3 fibroblast cytotoxicity, dose response, cytotoxicity control, cell-based, fluorescence, Alamar Blue, secondary assay (AID 2327); type: functional;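 also: NIH-3T3 mouse fibroblasts cultured with fluconazole at 8 µg/mL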
# [15] = fluconazole-exposed Candida albicans growth modulators – fluorescence, retest, confirmation (AID 2467); type: functional, cell-based
# [16] = HEK-293T cell viability reduction – luminescence, B-cell screen hits, cytotoxicity control for BCR NF-kB inhibitor project, dose response (AID 489021); type: functional, cell-based;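 also: HEK-293T cells carrying an NF-kB luciferase reporter; cells exposed to compound for about 14 hours before viability readout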
# INS1 = test: INS-1E survival protection against cytokine death – cell-based, luminescence, retest, dose response (AID 449756); type: functional;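 also: cell death triggered by IL-1 beta plus TNF-alpha plus IFN-gamma mixture; protective hits raise ATP signal compared with cytokine alone wells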
# [17] = molecular target: COUP transcription factor 2 (Homo sapiens, UniProt P24468); test: Luminescence-based cell-based high throughput dose response assay to identify inhibitors of COUP-TFII (NR2F2).; type: functional;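 also: HEK293 cells transiently cotransfected with COUP-TFII expression vector and reporter; luciferase reporter luminescence driven by COUP-TFII from the pX2-168 reporter plasmid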
# COUP transcription factor 2, sequence (P24468 whole entry): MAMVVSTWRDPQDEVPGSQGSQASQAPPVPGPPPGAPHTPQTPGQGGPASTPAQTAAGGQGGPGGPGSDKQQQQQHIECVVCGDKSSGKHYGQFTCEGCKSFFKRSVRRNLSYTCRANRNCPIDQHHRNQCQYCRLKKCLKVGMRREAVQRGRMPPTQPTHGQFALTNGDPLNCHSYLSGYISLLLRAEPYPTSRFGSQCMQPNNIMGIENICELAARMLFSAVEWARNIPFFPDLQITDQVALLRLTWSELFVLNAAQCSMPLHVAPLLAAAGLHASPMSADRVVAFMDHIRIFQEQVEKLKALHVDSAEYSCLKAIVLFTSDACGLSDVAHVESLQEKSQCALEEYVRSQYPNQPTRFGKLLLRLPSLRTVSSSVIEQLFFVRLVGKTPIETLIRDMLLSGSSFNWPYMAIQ
# [18] = HPDE-C7 pancreatic duct cell viability loss – fluorescence, HTS (AID 430); type: functional, cell-based; conditions: Homo sapiens
# [19] = viability loss of HPDE-C7K cells – cell-based, fluorescence, HTS, primary screen (AID 431); type: functional; conditions: Homo sapiens
# Cytochrome P450 3A4, sequence (P08684 whole entry): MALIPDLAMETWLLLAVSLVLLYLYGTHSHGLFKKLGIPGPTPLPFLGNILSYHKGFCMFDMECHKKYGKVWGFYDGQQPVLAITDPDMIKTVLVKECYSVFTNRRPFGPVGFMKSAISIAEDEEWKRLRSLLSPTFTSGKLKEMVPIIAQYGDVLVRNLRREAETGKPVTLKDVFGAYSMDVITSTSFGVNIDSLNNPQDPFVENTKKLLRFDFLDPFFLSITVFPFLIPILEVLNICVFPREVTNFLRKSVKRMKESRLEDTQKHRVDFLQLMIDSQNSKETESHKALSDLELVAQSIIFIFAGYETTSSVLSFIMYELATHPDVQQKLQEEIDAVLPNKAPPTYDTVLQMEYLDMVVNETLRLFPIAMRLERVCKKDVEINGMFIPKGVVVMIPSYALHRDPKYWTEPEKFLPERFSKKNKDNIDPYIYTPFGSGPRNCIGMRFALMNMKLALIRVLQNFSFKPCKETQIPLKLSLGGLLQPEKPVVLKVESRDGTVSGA
# Cytochrome P450 2C9, sequence (P11712 whole entry): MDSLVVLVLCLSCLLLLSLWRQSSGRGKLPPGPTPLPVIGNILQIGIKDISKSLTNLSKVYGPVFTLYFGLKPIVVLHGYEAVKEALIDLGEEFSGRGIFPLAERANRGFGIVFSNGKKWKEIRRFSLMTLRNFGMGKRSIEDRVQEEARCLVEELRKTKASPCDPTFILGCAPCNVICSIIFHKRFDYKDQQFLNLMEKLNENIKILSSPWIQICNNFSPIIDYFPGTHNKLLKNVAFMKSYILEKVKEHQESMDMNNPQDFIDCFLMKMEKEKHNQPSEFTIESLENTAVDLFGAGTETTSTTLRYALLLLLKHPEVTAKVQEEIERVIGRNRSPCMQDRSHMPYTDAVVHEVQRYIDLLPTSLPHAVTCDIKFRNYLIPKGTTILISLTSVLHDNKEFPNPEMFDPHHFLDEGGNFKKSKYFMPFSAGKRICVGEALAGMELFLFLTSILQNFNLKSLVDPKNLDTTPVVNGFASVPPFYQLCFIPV
structure (smiles),measurement,setting,value
CCc1ccc(C(=O)CN(C#N)c2nc(C)cc(C)n2)cc1,AC50,[1],19.3 µM (active)
same,AC50,Cytochrome P450 3A4,25.1 µM (inconclusive)
same,AC50,Cytochrome P450 2C9,inconclusive
Cc1c(NC(C)C)c(=O)n(-c2ccccc2)n1C [RAMIFENAZONE],IC50,[2],> 40 µM (inactive)
same,IC50,[3],> 40 µM (inactive)
same,AC50,Cytochrome P450 2D6,12.6 µM (inconclusive)
same,AC50,Cytochrome P450 1A2,0.0398 µM (inconclusive)
O=C(O)Cc1ccccc1C(=O)O [2-CARBOXYBENZENEACETIC ACID],IC50,Prothrombin,> 50 µM (not active)
Cc1ccc(S(=O)(=O)N2CCCCC2)cc1NC(=O)Cn1ncc(Cl)c(Cl)c1=O,AC50,[4],2.6 µM (active)
same,AC50,[5],6.21 µM (active)
same,AC50,A-375,23.7 µM (active)
same,AC50,[6],4.32 µM (active)
same,AC50,[7],23.5 µM (active)
same,AC50,[8],8.36 µM (active)
same,AC50,Paired box protein Pax-8,4.3 µM (active)
same,AC50,[9],9.07 µM (active)
same,AC50,[10],10.4 µM (active)
same,AC50,[11],17.9 µM (active)
same,AC50,[12],17.5 µM (active)
same,AC50,[13],7.53 µM (active)
Cc1ccc(-c2c[n+](-c3ccccc3)c3n2CCCS3)cc1,EC50,[14],50.9 µM (active)
same,EC50,[15],0.709 µM (active)
same,IC50,[16],> 80 µM (inactive)
same,AC50,"INS1; Rattus norvegicus, INS1",2.26 µM (active)
same,AC50,INS1; ins1,1.92 µM (active)
same,IC50,[17],17.4 µM (inactive)
C=CCn1cc(C(=O)NCc2ccc3c(c2)OCO3)c(=O)c2cc(S(=O)(=O)N(CC)CC)ccc21,IC50,Prothrombin,19.2 µM (active)
Cc1cc(C)nc(NCC(O)CNc2ccccc2Cl)n1 (centres undefined),EC50,[18],> 20 µM (not active)
same,EC50,[19],> 20 µM (not active)

# — ChEMBL document CHEMBL1201862, “PubChem BioAssay data set” (2004)
